{"source": "patent US20190343908A1", "about": "“Therapeutic Combination for the Treatment of Cancer” (Nerium Biotechnology Inc., priority 2011, published 2019)", "key": {"[1]": {"test_system": "PANC-1 pancreatic cancer cell line", "test": "Sulforhodamine B viability assay, PANC-1", "assay_type": "cell-based, human", "design": "key to Average SRB: absorbance (optical density) at 570 nm, second wavelength subtracted", "conditions": "for ABSORBANCE: 0.1 μg/mL cisplatin; for SRB 24 h / SRB 48 h / SRB 72 h: Run 1 average", "text": "Three different viability assays were chosen to complement each other and yielded results dependent on concentration and cell line: the Methyl Tetrazolium dye assay, the Sulforhodamine B fluorescent dye assay, and the Crystal Violet dye assay.\nThe Sulforhodamine B and Crystal Violet assays provide information about protein and were used to complement the Methyl-Tetrazolium dye assay. […] It is used for the quantification of cellular proteins of cultured cells. The assay using Crystal Violet, a dye that binds electrostatically to proteins and stains DNA, provides a reliable, simple assay for measuring viability of cells. […]\n(§1) Cells were detached by trypsinization (Trypsin-0.25% EDTA, Invitrogen, 25200-072) during the logarithmic phase of culture growth and plated in 96-well plates (18.000 cells/well) (Corning, Costar 359) in a final volume of 200 μl of medium per well. […] The absorbance was measured after 24 hours, 48 hours, and 72 hours of incubation.\nFor the Sulforhodamine B assay, 96-well plates were fixed by 10% trichloroacetic acid (Fluka, 91228) and were incubated at 4° C. for 1 hour. Afterwards, plates were rinsed with water and cells were stained with 0.4% Sulforhodamine B (Sigma, 341738), dissolved in 1% acetic acid (Carlo Ebra, 401422) for 15 minutes at room temperature (RT). The unbound stain was washed twice with 1% acetic acid. Finally, 10 mM Tris Buffer pH 10.5 (Sigma, T6791) was added to dissolve the dye.\n(§2) The optical density of each plate was measured on a μQuant spectrophotometer and the data were analyzed with Gen5 software (μQuant Biomolecular Spectrophotometer MQX200 and Gen5™ Microplate Data Collection & Analysis software, BioTek® Instruments. Inc, April 2008). Absorbance was measured at 570 nm for all assays and a second wavelength was measured in order to subtract noise. For the Methyl-Tetrazolium assay this second wavelength was 630 nm and for the Sulforhodamine B and Crystal Violet assays it was 690 nm."}, "[2]": {"test_system": "MDA-MB 231 (human breast cancer)", "test": "Crystal Violet viability assay, MDA-MB 231", "assay_type": "cell-based", "conditions": "for CVE 24 h / CVE 48 h / CVE 72 h: Run 3 average", "text": "The Sulforhodamine B and Crystal Violet assays provide information about protein and were used to complement the Methyl-Tetrazolium dye assay. […] It is used for the quantification of cellular proteins of cultured cells. The assay using Crystal Violet, a dye that binds electrostatically to proteins and stains DNA, provides a reliable, simple assay for measuring viability of cells.\nThe Methyl Tetrazolium, Sulforhodamine B, and Crystal Violet assays were used to assess cell viabilities. The incubation times were 24 hours, 48 hours, and 72 hours. The Nerium oleander extract Anvirzel™ (a hot water extract of oleander obtained from Salud Integral, Honduras) was tested in concentrations ranging from 0.01 ng/mL to 10 ng/mL.\nas §1\n[…] Formalin was removed and 0.25% aqueous crystal violet (Sigma, HT901), dissolved in water, was added for 10 minutes at RT. Unbound Crystal Violet was rinsed by washing with water and finally 33% acetic acid was added to dissolve the dye.\nas §2"}}}
{"molecule": "N.N.[Cl][Pt][Cl]", "note": "[cisplatin]", "values": [{"measurement": "ABSORBANCE", "setting": "[1]; PANC-1, 48 h", "result": 1.861}, {"measurement": "ABSORBANCE", "setting": "[1]; PANC-1, 72 h", "result": 2.536}, {"measurement": "Average SRB", "setting": "[1]; PANC-1, Run 2, 24 h, 0.1 μg/ml CDDP", "result": 1.924}, {"measurement": "Average SRB", "setting": "[1]; PANC-1, Run 2, 24 h, 1 μg/ml CDDP", "result": 2.391}, {"measurement": "Average SRB", "setting": "[1]; PANC-1, Run 2, 24 h, 10 μg/ml CDDP", "result": 2.075}, {"measurement": "Average SRB", "setting": "[1]; PANC-1, Run 2, 24 h, 100 μg/ml CDDP", "result": 1.821}, {"measurement": "Average SRB", "setting": "[1]; PANC-1, Run 2, 48 h, 0.1 μg/ml CDDP", "result": 1.505}, {"measurement": "Average SRB", "setting": "[1]; PANC-1, Run 2, 48 h, 1 μg/ml CDDP", "result": 1.549}, {"measurement": "Average SRB", "setting": "[1]; PANC-1, Run 2, 48 h, 10 μg/ml CDDP", "result": 1.106}, {"measurement": "Average SRB", "setting": "[1]; PANC-1, Run 2, 48 h, 100 μg/ml CDDP", "result": 0.752}, {"measurement": "Average SRB", "setting": "[1]; PANC-1, Run 2, 72 h, 0.1 μg/ml CDDP", "result": 2.471}, {"measurement": "Average SRB", "setting": "[1]; PANC-1, Run 2, 72 h, 1 μg/ml CDDP", "result": 2.171}, {"measurement": "Average SRB", "setting": "[1]; PANC-1, Run 2, 72 h, 10 μg/ml CDDP", "result": 1.815}, {"measurement": "Average SRB", "setting": "[1]; PANC-1, Run 2, 72 h, 100 μg/ml CDDP", "result": 1.374}, {"measurement": "Average SRB", "setting": "[1]; PANC-1, Run 3, 24 h, 0.1 μg/ml CDDP", "result": 1.881}, {"measurement": "Average SRB", "setting": "[1]; PANC-1, Run 3, 24 h, 1 μg/ml CDDP", "result": 2.008}, {"measurement": "Average SRB", "setting": "[1]; PANC-1, Run 3, 24 h, 10 μg/ml CDDP", "result": 1.74}, {"measurement": "Average SRB", "setting": "[1]; PANC-1, Run 3, 24 h, 100 μg/ml CDDP", "result": 2.087}, {"measurement": "Average SRB", "setting": "[1]; PANC-1, Run 3, 48 h, 0.1 μg/ml CDDP", "result": 1.861}, {"measurement": "Average SRB", "setting": "[1]; PANC-1, Run 3, 48 h, 1 μg/ml CDDP", "result": 1.165}, {"measurement": "Average SRB", "setting": "[1]; PANC-1, Run 3, 48 h, 10 μg/ml CDDP", "result": 0.954}, {"measurement": "Average SRB", "setting": "[1]; PANC-1, Run 3, 48 h, 100 μg/ml CDDP", "result": 0.858}, {"measurement": "Average SRB", "setting": "[1]; PANC-1, Run 3, 72 h, 0.1 μg/ml CDDP", "result": 2.536}, {"measurement": "Average SRB", "setting": "[1]; PANC-1, Run 3, 72 h, 1 μg/ml CDDP", "result": 2.281}, {"measurement": "Average SRB", "setting": "[1]; PANC-1, Run 3, 72 h, 10 μg/ml CDDP", "result": 2.07}, {"measurement": "Average SRB", "setting": "[1]; PANC-1, Run 3, 72 h, 100 μg/ml CDDP", "result": 1.584}, {"measurement": "SRB 24 h", "setting": "[1]; 0.1 μg/ml CDDP", "result": 1.369}, {"measurement": "SRB 48 h", "setting": "[1]; 0.1 μg/ml CDDP", "result": 2.223}, {"measurement": "SRB 72 h", "setting": "[1]; 0.1 μg/ml CDDP", "result": 2.191}, {"measurement": "SRB 24 h", "setting": "[1]; 1 μg/ml CDDP", "result": 1.748}, {"measurement": "SRB 48 h", "setting": "[1]; 1 μg/ml CDDP", "result": 1.748}, {"measurement": "SRB 72 h", "setting": "[1]; 1 μg/ml CDDP", "result": 1.47}, {"measurement": "SRB 24 h", "setting": "[1]; 10 μg/ml CDDP", "result": 1.597}, {"measurement": "SRB 48 h", "setting": "[1]; 10 μg/ml CDDP", "result": 1.339}, {"measurement": "SRB 72 h", "setting": "[1]; 10 μg/ml CDDP", "result": 1.435}, {"measurement": "SRB 24 h", "setting": "[1]; 100 μg/ml CDDP", "result": 1.993}, {"measurement": "SRB 48 h", "setting": "[1]; 100 μg/ml CDDP", "result": 1.53}, {"measurement": "SRB 72 h", "setting": "[1]; 100 μg/ml CDDP", "result": 1.433}, {"measurement": "CVE 24 h Average", "setting": "[2]; Run 1, 0.1 μg/ml CDDP", "result": 0.161}, {"measurement": "CVE 48 h Average", "setting": "[2]; Run 1, 0.1 μg/ml CDDP", "result": 0.939}, {"measurement": "CVE 72 h Average", "setting": "[2]; Run 1, 0.1 μg/ml CDDP", "result": 0.768}, {"measurement": "CVE 24 h Average", "setting": "[2]; Run 1, 1 μg/ml CDDP", "result": 0.124}, {"measurement": "CVE 48 h Average", "setting": "[2]; Run 1, 1 μg/ml CDDP", "result": 0.549}, {"measurement": "CVE 72 h Average", "setting": "[2]; Run 1, 1 μg/ml CDDP", "result": 0.375}, {"measurement": "CVE 48 h Average", "setting": "[2]; Run 1, 10 μg/ml CDDP", "result": 0.586}, {"measurement": "CVE 72 h Average", "setting": "[2]; Run 1, 10 μg/ml CDDP", "result": 0.416}, {"measurement": "CVE 24 h Average", "setting": "[2]; Run 1, 100 μg/ml CDDP", "result": 0.098}, {"measurement": "CVE 48 h Average", "setting": "[2]; Run 1, 100 μg/ml CDDP", "result": 0.504}, {"measurement": "CVE 72 h Average", "setting": "[2]; Run 1, 100 μg/ml CDDP", "result": 0.538}, {"measurement": "CVE 24 h Average", "setting": "[2]; Run 2, 0.1 μg/ml CDDP", "result": 0.118}, {"measurement": "CVE 48 h Average", "setting": "[2]; Run 2, 0.1 μg/ml CDDP", "result": 0.305}, {"measurement": "CVE 72 h Average", "setting": "[2]; Run 2, 0.1 μg/ml CDDP", "result": 0.485}, {"measurement": "CVE 24 h Average", "setting": "[2]; Run 2, 1 μg/ml CDDP", "result": 0.042}, {"measurement": "CVE 48 h Average", "setting": "[2]; Run 2, 1 μg/ml CDDP", "result": 0.047}, {"measurement": "CVE 72 h Average", "setting": "[2]; Run 2, 1 μg/ml CDDP", "result": 0.036}, {"measurement": "CVE 24 h Average", "setting": "[2]; Run 2, 10 μg/ml CDDP", "result": 0.125}, {"measurement": "CVE 48 h Average", "setting": "[2]; Run 2, 10 μg/ml CDDP", "result": 0.27}, {"measurement": "CVE 72 h Average", "setting": "[2]; Run 2, 10 μg/ml CDDP", "result": 0.301}, {"measurement": "CVE 24 h Average", "setting": "[2]; Run 2, 100 μg/ml CDDP", "result": 0.074}, {"measurement": "CVE 48 h Average", "setting": "[2]; Run 2, 100 μg/ml CDDP", "result": 0.062}, {"measurement": "CVE 72 h Average", "setting": "[2]; Run 2, 100 μg/ml CDDP", "result": 0.11}, {"measurement": "CVE 24 h", "setting": "[2]; 0.1 μg/ml CDDP", "result": 1.198}, {"measurement": "CVE 48 h", "setting": "[2]; 0.1 μg/ml CDDP", "result": 1.239}, {"measurement": "CVE 72 h", "setting": "[2]; 0.1 μg/ml CDDP", "result": 1.573}, {"measurement": "CVE 24 h", "setting": "[2]; 1 μg/ml CDDP", "result": 0.528}, {"measurement": "CVE 48 h", "setting": "[2]; 1 μg/ml CDDP", "result": 0.231}, {"measurement": "CVE 72 h", "setting": "[2]; 1 μg/ml CDDP", "result": 0.144}, {"measurement": "CVE 24 h", "setting": "[2]; 10 μg/ml CDDP", "result": 0.693}, {"measurement": "CVE 48 h", "setting": "[2]; 10 μg/ml CDDP", "result": 0.79}, {"measurement": "CVE 72 h", "setting": "[2]; 10 μg/ml CDDP", "result": 0.472}, {"measurement": "CVE 24 h", "setting": "[2]; 100 μg/ml CDDP", "result": 0.168}, {"measurement": "CVE 48 h", "setting": "[2]; 100 μg/ml CDDP", "result": 0.154}, {"measurement": "CVE 72 h", "setting": "[2]; 100 μg/ml CDDP", "result": 0.089}]}
